The values that follow come from US20220354836A1, “Equine Esomeprazole Formulations and Methods of Use” (priority 2019, published 2022).

Series [1] can be described thus: Particle size distribution (Malvern MASTERSIZER 2000). The note with it: sterilized drug substance from Shouguang Fukang Pharma Co.; average of three measurements. In kind it is physicochemical. The method, then: Particle size distribution may be measured, for example, using a Malvern MASTERSIZER 2000 instrument. After 24 hours storage, a particle size distribution (PSD) was performed using a Malvern MASTERSIZER 2000. The measuring range of the instrument is 0.02-2000 μm, with refractive index dispersant 1.375—hexanes, obscuration range 5-20%, sample/background measurement time=1, 5000 sample/background measurement snaps, and manual stirring speed 2000 rpm.

Series [2] in a line: Pharmacokinetics after multiple intramuscular doses to horses. The protocol: Eighteen adult horses were randomized into three equal treatment groups and assigned one of three doses: 2 mg/kg (1×), 6 mg/kg (3×), or 10 mg/kg (5×). Doses were administered intramuscularly. Each horse received the assigned dose three times, seven days apart. Blood samples were collected at 1, 2, 4, 6, 8, 12, 24, 36, 48, 72, 96, 120, 144 hrs after each dosing, then every 48 hours until Day 28. Esomeprazole was quantified by LC-MS/MS. Data were subjected to noncompartmental analysis.

Entries after “also recorded” stand apart in the source; their conditions may differ.

In series [1], `COc1ccc2[n-]c([S@@+]([O-])Cc3ncc(C)c(OC)c3C)nc2c1.COc1ccc2[n-]c([S@@+]([O-])Cc3ncc(C)c(OC)c3C)nc2c1.O.O.[Mg+2]` [esomeprazole magnesium dihydrate] yielded a Median particle size of 2.01 μm.
Turning to `COc1ccc2nc([S@@+]([O-])Cc3ncc(C)c(OC)c3C)[nH]c2c1` [esomeprazole sodium], the Median particle size in series [1] is recorded as 18.84 μm.
For `COc1ccc2nc([S@@+]([O-])Cc3ncc(C)c(OC)c3C)[nH]c2c1` [esomeprazole], in series [2] (across 2, 6 and 10 mg/kg intramuscular), the “Dose normalization of Cmax and area under the curve (kinetic linearity)” value was “linear pharmacokinetics; also recorded: Linear kinetic properties were observed”. Further, in series [2] (after the final dose in the 5× group (10 mg/kg intramuscular)), the “Time for which drug was detectable” value stood at 96 ± 26.29 h. This molecule had a Mean half-life in series [2] (horse, in vivo, im, 10 mg/kg) of 12 to 24 h. Moreover, the half-life – broadly, how long it takes for the measured level to halve – in series [2] (horse, in vivo, im, 10 mg/kg, Mean half-life) lay in the range of 11.6 to 24.5 h. In series [2] (in vivo), the Tolerability result is “well tolerated”. Besides, the “Absorption from the injection site” value in series [2] (intramuscular, horses) is listed as “rapidly absorbed”. The Injection site reaction entry in series [2] (one horse in the 3× group (6 mg/kg intramuscular)) is “A single mild, self-resolving, injection site reaction”.
